These results are taken from US9018231B2, “Sulfone compounds as 5-HT6 receptor ligands” (Suven Life Sciences Limited, priority 2010, dated 2015).

The structures appear in SMILES notation. Counter-ions that a name gives are not always drawn. Like-named read-outs stand apart in the source and are kept apart here.

Data set [1] is described as follows: Rodent pharmacokinetic study. It is filed as in vivo. The following applies: plasma, Wistar/Male rat, 10 mg/kg; for AUC(0-t) / half-life / Cmax / Tmax: vehicle water (Ex. 8: 50% PEG 400); for Cmax: read-out: Cmax; for Tmax: read-out: Tmax; for bioavailability: Oral vs Intravenous, read-out: Bioavailability. The protocol: Male wistar rats (230-280 grams) obtained from NIN (National Institute of Nutrition, Hyderabad, India) were used as an experimental animal. Three to five animals were housed in each cage. Animals were kept fasted over night and maintained on a 12 hours light/dark cycle. Three rats were dosed NCE (10 mg/Kg) orally and intravenously on day 0 and day 2.
At each time point blood was collected by jugular vein. Plasma was stored frozen at −20° C. until analysis. The concentrations of the NCE compound in plasma were determined using LC-MS/MS method. Schedule time points: Pre dose 0.25, 0.5, 1, 1.5, 2, 3, 4, 6, 8, 10, 12 and 24 hours after dosing (n=3). The NCE compounds were quantified in plasma by validated LC-MS/MS method using solid phase extraction technique. NCE compounds were quantified in the calibration range of 2-2000 ng/mL in plasma. Study samples were analyzed using calibration samples in the batch and quality control samples spread across the batch.
Pharmacokinetic parameters Cmax, Tmax, AUCt, T1/2 and Bioavailability were calculated by non-compartmental model using software WinNonlin version 5.1.

In data set [2] the target is T1, recombinant human 5-HT6 receptor (Homo sapiens, UniProt P50406).
T1 construct: expressed in transfected cells
Kind of data set: Determination of Kb values for 5-HT6 receptor (CHO pCRE-Luc reporter assay). The format is cell-based. The following applies: antagonism of 10 uM serotonin, luciferase reporter, CHO cells. The protocol:
A stable CHO cell line expressing recombinant human 5-HT6 receptor and pCRE-Luc reporter system was used for cell-based assay. The assay offers a non-radioactive based approach to determine binding of a compound to GPCRs. In this specific assay, the level of intracellular cyclic AMP which is modulated by activation or inhibition of the receptor is measured. The recombinant cells harbor luciferase reporter gene under the control of cAMP response element.
The above cells were grown in 96 well clear bottom white plates in Hams F12 medium containing 10% fetal bovine serum (FBS). Prior to the addition of compounds and/or agonist, cells were serum starved overnight. Increasing concentrations of test compounds were added along with 10 uM serotonin in Hams F12 medium containing 1% dialyzed FBS to the cells. The incubation was continued at 37° C. in CO2 incubator for 4 hours. Medium was removed and cells were washed with phosphate buffered saline. The cells were lysed and luciferase activity was measured in a Luminometer. Luminescence units were plotted against the compound concentrations using Graphpad software. EC50 values of the compounds were defined as the concentration required reducing the luciferase activity by 50%. The Kb values were calculated by feeding the concentration of the agonist used in the assay and its EC50 value in the same software.
(In general: A reporter such as luciferase makes a cellular process visible.)

Data set [3] in a line: Object recognition task model. The format is in vivo. The following applies: rat, p.o. The protocol: The cognition-enhancing properties of compounds of this invention were estimated using a model of animal cognition: the object recognition task model.
Male Wister rats (230-280 grams) obtained from N.I.N. (National Institute of Nutrition, Hyderabad, India) was used as experimental animals. Four animals were housed in each cage. Animals were kept on 20% food deprivation before one day and given water ad libitum throughout the experiment and maintained on a 12 hours light/dark cycle. Also the rats were habituated to individual arenas for 1 hour in the absence of any objects.
One group of 12 rats received vehicle (1 mL/Kg) orally and another set of animals received compound of the formula (I) either orally or i.p., before one hour of the familiar (T1) and choice trial (T2).
The experiment was carried out in a 50×50×50 cm open field made up of acrylic. In the familiarization phase, (T1), the rats were placed individually in the open field for 3 minutes, in which two identical objects (plastic bottles, 12.5 cm height×5.5 cm diameter) covered in yellow masking tape alone (a1 and a2) were positioned in two adjacent corners, 10 cm. from the walls. After 24 hours of the (T1) trial for long-term memory test, the same rats were placed in the same arena as they were placed in T1 trial. Choice phase (T2) rats were allowed to explore the open field for 3 minutes in presence of one familiar object (a3) and one novel object (b) (Amber color glass bottle, 12 cm high and 5 cm in diameter). Familiar objects presented similar textures, colors and sizes. During the T1 and T2 trial, explorations of each object (defined as sniffing, licking, chewing or having moving vibrissae whilst directing the nose towards the object at a distance of less than 1 cm) were recorded separately by stopwatch. Sitting on an object was not regarded as exploratory activity, however, it was rarely observed. T1 is the total time spent exploring the familiar objects (a1+a2). T2 is the total time spent exploring the familiar object and novel object (a3+b).
The object recognition test was performed as described by Ennaceur, A., Delacour, J., 1988, A new one-trial test for neurobiological studies of memory in rats—Behavioural data, Behav. Brain Res., 31, 47-59.

T1 sequence (P50406 whole entry): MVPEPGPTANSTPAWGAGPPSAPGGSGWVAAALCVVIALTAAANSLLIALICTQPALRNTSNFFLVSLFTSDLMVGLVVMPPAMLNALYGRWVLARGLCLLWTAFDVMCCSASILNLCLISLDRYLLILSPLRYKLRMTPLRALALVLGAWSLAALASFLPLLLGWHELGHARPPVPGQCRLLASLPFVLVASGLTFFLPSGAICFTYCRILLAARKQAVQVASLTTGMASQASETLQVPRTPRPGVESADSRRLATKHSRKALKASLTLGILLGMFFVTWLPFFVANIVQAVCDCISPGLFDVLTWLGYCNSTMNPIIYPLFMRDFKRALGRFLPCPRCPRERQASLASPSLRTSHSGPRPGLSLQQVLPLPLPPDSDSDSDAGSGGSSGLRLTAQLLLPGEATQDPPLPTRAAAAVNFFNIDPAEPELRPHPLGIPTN

Turning to `COc1ccc2[nH]cc(S(=O)(=O)c3ccc(Cl)c(NC4CCN(C)CC4)c3)c2c1.Cl`, the melting point is 240.3 to 243.2 °C.

Take `COc1ccc(S(=O)(=O)c2cc(Br)ccc2OC)cc1NC1CCN(C)CC1.Cl` [Example 3, N-[5-(5-Bromo-2-methoxybenzenesulfonyl)-2-methoxyphenyl]-N-(1-methylpiperidin-4-yl)amine hydrochloride salt]: in data set [1] (Intravenous), the AUC(0-t) amounted to 1610 ± 544 ng·h/mL, the half-life was 1.57 ± 0.21 h, the Cmax was found to be 1080 ± 569 ng/mL and the Tmax was 0.12 ± 0.09 h. In data set [1], the bioavailability is 38 ± 1%. In addition, in data set [1] (Oral), the AUC(0-t) amounted to 931 ± 186 ng·h/mL, the half-life was 1.35 ± 0.27 h, the Cmax stood at 341 ± 60 ng/mL and the Tmax was 0.56 ± 0.31 h. Besides, the Kb in data set [2] came to 0.01 nM. In addition, in data set [3] (1 mg/kg), the “Exploration time mean ± S.E.M, Familiar object” value worked out at 4.53 ± 0.72 s; the “Exploration time mean ± S.E.M, Novel object” value was determined as 10.29 ± 1.54 s; the Inference result is “Active”.

On to `CN1CCC(Nc2cccc(S(=O)(=O)c3c[nH]c4cc(Cl)ccc34)c2)CC1` [Example 5, N-(1-Methylpiperidin-4-yl)-N-[3-(6-chloro-1H-indole-3-ylsulfonyl)phenyl]amine hydrochloride], for which the Kb in data set [2] worked out at 3.38 nM.

The compound `CN1CCC(Nc2cccc(S(=O)(=O)c3c[nH]c4ccc(F)cc34)c2)CC1.Cl` [Example 6, N-(1-Methylpiperidin-4-yl)-N-[3-(5-fluoro-1H-indole-3-ylsulfonyl)phenyl]amine hydrochloride] displayed a melting point of 229.7 to 233.1 °C. In data set [2], the Kb came to 3.59 nM.

For the compound `COc1ccc(S(=O)(=O)c2c[nH]c3ccccc23)cc1NC1CCN(C)CC1` [Example 11, N-(1-Methylpiperidin-4-yl)-N-[2-methoxy-5-(1H-Indole-3-ylsulfonyl)phenyl]amine], the Kb in data set [2] amounted to 0.05 nM. Also, in data set [3] (3 mg/kg), the “Exploration time mean ± S.E.M, Familiar object” value is 9.19 ± 1.44 s; the “Exploration time mean ± S.E.M, Novel object” value came out at 14.24 ± 1.29 s; the Inference entry was “Active”.

Consider `COc1ccc2[nH]cc(S(=O)(=O)c3ccc(OC)c(NC4CCN(C)CC4)c3)c2c1` [Example 13, N-(1-Methylpiperidin-4-yl)-N-[2-methoxy-5-(5-methoxy-1H-Indole-3-ylsulfonyl)phenyl]amine], for which the Kb in data set [2] was determined as 0.11 nM.

As to `COc1ccc2[nH]cc(S(=O)(=O)c3ccc(OC)c(NC4CCNCC4)c3)c2c1` [Example 14, N-(Piperidin-4-yl)-N-[2-methoxy-5-(5-methoxy-1H-Indole-3-ylsulfonyl)phenyl]amine], the Kb in data set [2] is 0.16 nM.

With `CN1CCC(Nc2cc(S(=O)(=O)c3c[nH]c4cc(Cl)ccc34)ccc2Cl)CC1` [Example 15, N-(1-Methylpiperidin-4-yl)-N-[2-chloro-5-(6-chloro-1H-Indole-3-ylsulfonyl)phenyl] amine], the melting point lay in the range of 186.1 to 189.9 °C.

Regarding `COc1ccc(Br)cc1S(=O)(=O)c1ccc(C)c(NC2CCNCC2F)c1` (stereo not drawn) [Example 18, N-[5-(5-Bromo-2-methoxybenzenesulfonyl)-2-methylphenyl]-N-(3-fluoropiperidin-4-yl) amine hydrochloride], in data set [2], the Kb amounted to 6.1 nM.

Turning to `COc1ccc(Br)cc1S(=O)(=O)c1ccc(C)c(NC2CCNCC2)c1` [Example 22, N-[5-(5-Bromo-2-methoxybenzenesulfonyl)-2-methylphenyl]-N-(piperidin-4-yl)amine hydrochloride], the Kb in data set [2] came to 1.1 nM.

With `COc1ccc(Br)cc1S(=O)(=O)c1ccc(C)c(NC2CCN(C)CC2)c1` [Example 23, N-[5-(5-Bromo-2-methoxybenzenesulfonyl)-2-methylphenyl]-N-(1-methylpiperidin-4-yl)amine hydrochloride], the Kb in data set [2] amounted to 2.1 nM.

On to `COc1ccc(S(=O)(=O)c2cc(Br)ccc2OC)cc1NC1CCNCC1F.Cl` (stereo not drawn) [Example 28, N-[5-(5-Bromo-2-methoxybenzenesulfonyl)-2-methoxyphenyl]-N-(3-fluoropiperidin-4-yl)amine hydrochloride], for which, in data set [1] (Intravenous), the AUC(0-t) stood at 3470 ± 161 ng·h/mL, the half-life was 1.46 ± 0.13 h, the Cmax came out at 1920 ± 29 ng/mL and the Tmax stood at 0.08 h. Moreover, the bioavailability in data set [1] is 44 ± 18%. Besides, in data set [1] (Oral), the AUC(0-t) worked out at 1520 ± 630 ng·h/mL, the half-life was 1.36 ± 0.07 h, the Cmax amounted to 429 ± 181 ng/mL and the Tmax was found to be 0.83 ± 0.29 h. In addition, the Kb in data set [2] was determined as 0.1 nM. In data set [3] (1 mg/kg), the “Exploration time mean ± S.E.M, Familiar object” value was 6.26 ± 0.30 s; the “Exploration time mean ± S.E.M, Novel object” value worked out at 11.46 ± 1.02 s; the Inference result is “Active”.

Consider `COc1ccc(S(=O)(=O)c2cc(Br)ccc2OC)cc1NC1CCNCC1` [Example 29, N-[5-(5-Bromo-2-methoxybenzenesulfonyl)-2-methoxyphenyl]-N-(piperidin-4-yl)amine hydrochloride], for which, in data set [2], the Kb turned out to be 0.1 nM.

Take `COc1ccc(S(=O)(=O)c2ccc(OC)c(NC3CCN(C)CC3)c2)cc1Br` [Example 30, N-[5-(3-Bromo-4-methoxybenzenesulfonyl)-2-methoxyphenyl]-N-(1-methylpiperidin-4-yl)amine tartarate]: the Kb in data set [2] came out at 0.01 nM.

With `COc1ccc(S(=O)(=O)c2cc(F)ccc2OC)cc1NC1CCN(C)CC1` [Example 31, N-[5-(5-Fluoro-2-methoxybenzenesulfonyl)-2-methoxyphenyl]-N-(1-methylpiperidin-4-yl)amine tartarate], the Kb in data set [2] was found to be 0.05 nM.

Regarding `COc1ccc(S(=O)(=O)c2ccc(Cl)cc2)cc1NC1CCN(C)CC1` [Example 32, N-[5-(4-Chlorobenzenesulfonyl)-2-methoxyphenyl]-N-(1-methylpiperidin-4-yl)amine tartarate], the Kb in data set [2] stood at 0.06 nM.

`COc1ccc(S(=O)(=O)c2ccc(OC)c(NC3CCN(C)CC3)c2)cc1Cl` [Example 34, N-[5-(3-Chloro-4-methoxybenzenesulfonyl)-2-methoxyphenyl]-N-(1-methylpiperidin-4-yl)amine tartarate]: the Kb in data set [2] came out at 0.1 nM.

With `Cc1ccc(S(=O)(=O)c2ccccc2)cc1NC1CCN(C)CC1` [Example 35, N-(5-Benzenesulfonyl-2-methylphenyl)-N-(1-methylpiperidin-4-yl)amine], in data set [3] (10 mg/kg), the “Exploration time mean ± S.E.M, Familiar object” value came out at 9.37 ± 1.66 s; the “Exploration time mean ± S.E.M, Novel object” value was determined as 15.81 ± 2.89 s; the Inference entry is listed as “Active”.

A word on the melting point: it is the temperature, or range, at which the solid turns liquid. As a reminder, the AUC(0-t) is the area under the concentration-time curve up to a stated or last time point. A word on the half-life: it is the time in which the quantity being followed falls by half. The low end stands for fast loss, the high end for slow loss. The Cmax is the maximum level reached in the sampled fluid or tissue. As a reminder, the Tmax is the time from dosing to the highest level. One may read the bioavailability as dose-corrected exposure relative to a reference, in per cent. One may read the Kb as the equilibrium dissociation constant of an antagonist, usually derived from a functional assay.
